US12678463B2, “Activated mesenchymal stem cells for treating limb ischemia” (Cellin Technologies OÜ, priority 2019, dated 2026)

Experiments:
Type in all cases: cell-based, human
[1] = system: AdMSCs; assay: Cell cycle analysis by propidium iodide staining and flow cytometry; conditions: 24 h after treatment; for percentage of cells in G0/G1 phase: non-treated control 82%, paracetamol 4.4 mM, diclofenac 10 μM, metamizole 10 μM, ketoprofen 50 μM, prednisolone 0.1 μM; for percentage of cells in G2/M cell cycle phase: vs non-treated control
Method: FIG. 2. Cell cycle analysis of control and AIDs-treated AdMSCs. AIDs-treated and control AdMSCs were stained with propidium iodide (PI) 24 h after treatments and analyzed using flow cytometry by BD Accuri C6.
The percentage of cells in G0/1 phase was lower in the cultures treated with metamizole (Analgin™) (65%) and paracetamol (71%), whereas the percentage of cells in G2/M cell cycle phase was increased in these cultures (FIG. 2).

[2] = system: AdMSCs; assay: RT-qPCR of angiogenic marker mRNA in AIDs-treated AdMSCs; conditions: 24 h treatment, relative to untreated AdMSCs, normalized with GAPDH
Method: VEGFA, HGF, bFGF and TEK mRNA expression levels in AdMSCs treated with AIDs for 24 h were measured in triplicates by RT-qPCR and normalized with GAPDH mRNA expression levels. Data from AIDs-treated cells were calculated relatively to control untreated AdMSCs and results are represented in a log scale. Positive values indicated increased and negative values decreased mRNA levels compared to control untreated cells.
Numerous soluble factors produced by MSCs are involved in the regulation of angiogenesis and neovascularisation in vivo (Estrada et al., 2009). […] The effect of the AIDs on expression of angiogenic factors in AdMSCs was analyzed. Different AIDs affected the expression of angiogenic factors differently either stimulating or suppressing their expression.

[3] = system: AdMSCs; assay: ELISA of secreted inflammatory factors in culture media of AdMSCs; conditions: for effect on CCL2 level / effect on CXCL8 level / effect on IL6 level: LPS-stimulated AdMSC cultures, 24 h; for secreted IL-1RN concentration / secreted IL6 concentration / secreted CXCL8 concentration / secreted CCL2 concentration: LPS-stimulated, AIDs-treated 24 h; for secreted IL-1RN concentration: control + LPS 61 ± 18; for secreted IL6 concentration: control + LPS 210 ± 22; for secreted CXCL8 concentration: control + LPS 2373 ± 109; for secreted CCL2 concentration: control + LPS 461 ± 19.9; for IL-1RN level in culture media over time / IL6 level in culture media over time: LPS-treated cultures, single treatment; for IL-1RN level in culture media over time: serum-deficient, 24, 48 and 72 h; for IL6 level in culture media over time: serum-deficient, 24, 48 and 72 h (prednisolone: at 72 h)
Method: FIG. 5. Changes of inflammatory factors in culture media. Secreted IL6, CXCL8, CCL2 and IL1RN levels were measured from the conditional media of control, LPS-stimulated, and LPS-stimulated and paracetamol or prednisolone-treated AdMSCs by ELISA at 24, 48 and 72 h and represented as normalized to control 24 h probe.
To mimic inflammatory conditions, AdMSCs were exposed to lipopolysaccharide (LPS) prior to AIDs treatments. […] Then, LPS-treated AdMSCs were exposed to AIDs to study their effect on cytokines in inflammatory conditions.

[4] = system: LPS-stimulated AdMSCs; assay: RT-qPCR of inflammatory gene mRNA in LPS-stimulated AIDs-treated AdMSCs; conditions: 24 hours exposure, vs LPS-treated cells
Method: FIG. 4. Relative mRNA expression of inflammatory genes in LPS-stimulated and AIDs-treated for 24 h AdMSCs represented as heat map. Expression levels were measured in triplicates by RT-qPCR and normalized with GAPDH mRNA expression levels. Data from LPS-stimulated AIDs-treated AdMSCs were calculated as a relative fold difference compared to LPS-treated cells and converted to the log scale. The quantitative changes in gene expression are represented by shading: darker shade indicates up-regulation, whereas lighter shade indicates down-regulation. Expression data were visualized using GENE-E software.
FIG. 6. Heat map of the expression profile of inflammatory genes in LPS-stimulated and AIDs-treated AdMSCs. Inflammatory genes mRNA expression levels of LPS-stimulated and AIDs-treated for 48 h (A) and 72 h (B) AdMSCs were calculated as a fold difference compared to LPS-treated AdMSCs and represented as heat maps. Expression levels of inflammatory gene mRNAs were measured in triplicates by RT-qPCR, normalized with GAPDH mRNA levels and converted to the log scale. Positive values (darker shade) indicate higher expression, and negative values (lighter shade) lower expression relatively to the control LPS-treated AdMSCs.
Effects of AIDs on mRNA expression of inflammatory cytokines in AdMSCs were analyzed using RT-qPCR technique. Analyses results were visualized as a heat map graph using GENE-E platform (FIG. 4). Short-term treatment of AdMSCs by AIDs affected the expression of inflammatory cytokines. […] Expression of pro-inflammatory cytokines CCL2, CCL3, TNF, IL6, ILIA and ILIB was suppressed by ketoprofen and metamizole (Analgin™) treatments.
Effects of repeated AIDs treatments (48 and 72 h) on mRNA expression of cytokines in AdMSCs were analyzed using RT-qPCR technique. Differential expression of cytokine genes is represented as a heat map in FIG. 6. […] Upon exposure to various drugs, complex expression pattern of pro- and anti-inflammatory factors were observed. […] However, the stable induced expression of anti-inflammatory factors (IL4, TNFAIP6, IDO1) was not observed.

[5] = system: AdMSCs; assay: ELISA of secreted inflammatory factors in culture media of AdMSCs; conditions: for secreted IL6 concentration / secreted CCL2 concentration / secreted IL-1RN concentration / secreted CXCL8 concentration: AIDs-treated 24 h; for secreted IL6 concentration: control 40 ± 2; for secreted CCL2 concentration: control 96 ± 3.2; for secreted IL-1RN concentration: control 2.3 ± 0.03; for secreted CXCL8 concentration: control 277 ± 12.7
[6] = system: AdMSCs; assay: WST-1 metabolic activity assay of AdMSCs treated with anti-inflammatory drugs; conditions: first 24 hours; metamizole 10 μM
Method: AdMSCs metabolic activity was measured at 1, 2, 3 and 5 days after the treatments.
During the first 48 hours, all analyzed AIDs stimulated the metabolic activity of AdMSCs.

[7] = standard culture conditions, no LPS
[8] = LPS-treated cultures, single treatment, serum-deficient, 24, 48 and 72 h

SMILES | percentage of cells in G0/G1 phase [1] [%] | HGF mRNA expression [2] | TEK mRNA expression [2] | VEGFA mRNA expression [2] | bFGF mRNA expression [2] | effect on CCL2 level [3] | effect on CXCL8 level [3] | effect on IL6 level [3] | secreted IL-1RN concentration [3] [pg/mL] | secreted IL6 concentration [3] [pg/mL] | secreted CXCL8 concentration [3] [pg/mL] | TGFβ1 and TGFβ3 mRNA expression [4] | TGFβ2 mRNA expression [4] | secreted IL6 concentration ([5]; no LPS) [pg/mL] | secreted CCL2 concentration ([5]; no LPS) [pg/mL] | effect on synthesis and secretion of immunomodulatory factors [5, 7] | secreted CCL2 concentration [3] [pg/mL] | expression of pro-inflammatory cytokines CCL2, CCL3, TNF, IL6, ILIA and ILIB (mRNA) [4] | secreted IL-1RN concentration ([5]; no LPS) [pg/mL] | secreted CXCL8 concentration ([5]; no LPS) [pg/mL] | further results
O=C(O)Cc1ccccc1Nc1c(Cl)cccc1Cl [diclofenac] | 81 | no effect | no effect | no effect | no effect | no effect | stimulated | stimulated | 17 ± 2 | 390 ± 4 | 2807 ± 361 | suppressed | stimulated | 50 ± 1 | 64 ± 8.4 | minor effect | – | – | – | – | –
CC(C(=O)O)c1cccc(C(=O)c2ccccc2)c1 (centres unmarked) [ketoprofen] | 80 | up-regulation | up-regulation | up-regulation | up-regulation | no effect | stimulated | stimulated | 12 ± 0.5 | 440 ± 143 | 2509 ± 68 | – | – | 10 ± 1 | 165 ± 23.4 | minor effect | 451 ± 31.8 | suppressed | 0 | 301 ± 0.3 | –
Cc1c(N(C)CS(=O)(=O)O)c(=O)n(-c2ccccc2)n1C [metamizole (Analgin™), metamizole] | 65 | up-regulation | up-regulation | up-regulation | up-regulation | Inhibitory effect | – | – | 12 ± 1 | 180 ± 29 | 1816 ± 121 | – | – | 30 ± 1 | 109 ± 3.2 | minor effect | 313 ± 43.9 | suppressed | 3.9 ± 0.03 | 341 ± 4.7 | cellular metabolism (WST-1 metabolic activity) [6]: significantly stimulated; percentage of cells in G2/M cell cycle phase [1]: increased; effect on IL1RN expression ([5]; LPS-stimulated AdMSC cultures, 24 h): Inhibitory effect
CC(=O)Nc1ccc(O)cc1 [paracetamol] | 71 | inhibited | strongly suppressed | inhibited | induced | – | significantly reduced | significantly reduced | 33 ± 9 | 90 ± 14 | 623 ± 41 | suppressed | stimulated | 0 | 8 ± 0.4 | minor effect | 270 ± 29.9 | – | 11.0 ± 0.65 | 11 ± 0.1 | percentage of cells in G2/M cell cycle phase [1]: increased; IL-1RN level in culture media over time [3]: no significant effects; IL6 level in culture media over time [3]: no significant effects; CCL2 level in culture media over time [5, 8]: lowered; CXCL8 level in culture media over time [5, 8]: no significant effects; CCL2 level in culture media compared to untreated cells [5, 7]: significant reduction; CXCL8/IL8 level in culture media compared to untreated cells [5, 7]: significant reduction; IL6 level in culture media compared to untreated cells [5, 7]: significant reduction
C[C@]12C=CC(=O)C=C1CC[C@@H]1[C@@H]2[C@@H](O)C[C@@]2(C)[C@H]1CC[C@]2(O)C(=O)CO [prednisolone] | 77 | inhibited | opposite effect | inhibited | opposite effect | – | significantly reduced | significantly reduced | 33 ± 2 | 50 ± 12 | 402 ± 51 | – | – | 30 ± 2 | 100 ± 12.2 | minor effect | 314 ± 23.2 | – | 7.3 ± 0.20 | 35 ± 0.1 | IL-1RN level in culture media over time [3]: inhibited; IL6 level in culture media over time [3]: moderately induced; CCL2 level in culture media over time [5, 8]: significantly stimulated
